Measured values taken from publication PMC10821124, “Dimeric 3,5-Bis(benzylidene)-4-piperidones: Tumor-Selective Cytotoxicity and Structure-Activity Relationships” (Medicines, 2024).

Experiments:
[1] = Cytotoxicity, MTT method, HGF non-malignant cells; type: cell-based, human; conditions: human, gingival fibroblasts (HGF), non-malignant, mean ± SD
Protocol: (§1) Human promyelocytic leukemia [HL-60 (RCB3683)] (purchased from Riken Cell Bank, Tsukuba, Japan) was cultured at 37 °C in RPMI1640 medium (Fujifilm Wako Pure Chemical Co., Osaka, Japan) supplemented with 10% heat (56 °C, 30 min) inactivated FBS (Sigma-Aldrich Inc. St. Louis, MO, USA), 100 U/mL penicillin G, and 100 µg/mL streptomycin sulfate in a humidified 5% CO2 incubator (MCO-170 AICUVD-P, Panasonic Healthcare Co., Ltd., Gunma, Japan). Human oral squamous cell carcinoma (OSCC) cell lines derived from tongue [HSC-2 (RCB1945), HSC-3 (RCB1975), HSC-4 (RCB1902)] (Riken Cell Bank), and human normal oral cells (gingival fibroblasts, HGF; pulp cell, HPC; periodontal ligament fibroblast, HPLF), established from the first premolar extracted tooth in the lower jaw and periodontal tissues of a child, according to the guidelines of Meikai University Ethic Committee (No. A0808), were cultured in DMEM medium (Fujifilm Wako Pure Chemical Co.) supplemented with 10% FBS and antibiotics. The compounds in Series 2–4 were evaluated against HL-60, HSC-2, HSC-3, HSC-4, HGF, HPC, and HPLF cells based on a literature procedure, as described previously. In brief, near confluent cells were incubated in triplicate for 48 h at 37 °C with different concentrations ([…], 6.3, 12.5, 25, 50, 100 µM) of the compounds; then, viable cell numbers were measured using the MTT method. From the dose–response curve, a 50% cytotoxic concentration (CC50) was determined. All samples were dissolved in dimethylsulfoxide (DMSO). The toxicity of DMSO alone was calculated and subtracted. The CC50 values were determined from dose–response curves.

[2] = tested on: human tumour cell lines HL-60, HSC-2, HSC-3, HSC-4; test: Cytotoxicity, average over the four human tumour cell lines; type: cell-based; conditions: for CC50: Homo sapiens, average of HL-60, HSC-2, HSC-3, HSC-4, read-out: AVE. CC50, human tumour cell lines; for AVE SI: average of the four SI values
Protocol: as §1

[3] = tested on: human oral squamous cell carcinoma HSC-2 cells; test: Cytotoxicity, MTT method, HSC-2 cells; type: cell-based; conditions: for CC50: Homo sapiens, HSC-2, 48 h, MTT, mean ± SD, read-out: CC50 HSC-2; for SI (selectivity index) HSC-2: average CC50 non-malignant cells / CC50 HSC-2
Protocol: as §1

[4] = tested on: human promyelocytic leukemia HL-60 cells; test: Cytotoxicity, MTT method, HL-60 cells; type: cell-based; conditions: for CC50: Homo sapiens, HL-60, 48 h, MTT, mean ± SD, read-out: CC50 HL-60; for SI (selectivity index) HL-60: average CC50 non-malignant cells / CC50 HL-60
Protocol: as §1

[5] = Cytotoxicity, MTT method, HPC non-malignant cells; type: cell-based, human; conditions: human, pulp cells (HPC), non-malignant, mean ± SD
Protocol: as §1

[6] = Cytotoxicity, average over the three human normal cells; type: cell-based; conditions: human, average of HGF, HPC, HPLF; read-out: AVE CC50, human normal cells
Protocol: as §1

[7] = tested on: human normal cells HGF, HPC, HPLF; test: as above; type: cell-based; conditions: average of HGF, read-out: AVE CC50, human normal cells
Protocol: as §1

[8] = Cytotoxicity, MTT method, HPLF non-malignant cells; type: cell-based, human; conditions: human, periodontal ligament fibroblasts (HPLF), non-malignant, mean ± SD
Protocol: as §1

[9] = tested on: human oral squamous cell carcinoma HSC-3 cells; test: Cytotoxicity, MTT method, HSC-3 cells; type: cell-based; conditions: for CC50: Homo sapiens, HSC-3, 48 h, MTT, mean ± SD, read-out: CC50 HSC-3; for SI (selectivity index) HSC-3: average CC50 non-malignant cells / CC50 HSC-3
Protocol: as §1

[10] = tested on: human oral squamous cell carcinoma HSC-4 cells; test: Cytotoxicity, MTT method, HSC-4 cells; type: cell-based; conditions: for CC50: Homo sapiens, HSC-4, 48 h, MTT, mean ± SD, read-out: CC50 HSC-4; for SI (selectivity index) HSC-4: average CC50 non-malignant cells / CC50 HSC-4
Protocol: as §1

| SMILES | CC50 at 48 h [1] [µM] | CC50 [2] [µM] | AVE SI [2] | CC50 [3] [µM] | SI (selectivity index) HSC-2 [3] | CC50 [4] [µM] | SI (selectivity index) HL-60 [4] | CC50 at 48 h [5] [µM] | CC50 at 48 h [6] [µM] | CC50 [7] [µM] | CC50 at 48 h [8] [µM] | CC50 [9] [µM] | SI (selectivity index) HSC-3 [9] | CC50 [10] [µM] | SI (selectivity index) HSC-4 [10] | CC50 values in all four bioassays (range in words) ([2]; HL-60, HSC-2, HSC-3, HSC-4) |
| --- | --- | --- | --- | --- | --- | --- | --- | --- | --- | --- | --- | --- | --- | --- | --- | --- |
| O=C1/C(=C/c2ccc(Cl)cc2)CN(C(=O)C(=O)N2C/C(=C\c3ccc(Cl)cc3)C(=O)/C(=C/c3ccc(Cl)cc3)C2)C/C1=C\c1ccc(Cl)cc1 [Compound 2c] | 56 ± 6.7 | 6.45 | 13.7 | 3.7 ± 0.6 | 20.1 | 4.4 ± 0.17 | 16.9 | 78 ± 37 | > 50 | 74.3 | 89 ± 9.3 | 11 ± 1.1 | 6.76 | 6.7 ± 3 | 11.1 | – |
| COc1ccc(/C=C2\CN(C(=O)C(=O)N3C/C(=C\c4ccc(OC)cc4)C(=O)/C(=C/c4ccc(OC)cc4)C3)C/C(=C\c3ccc(OC)cc3)C2=O)cc1 [Compound 2h] | 82 ± 14 | 10.4 | >8.34 | 7.8 ± 1.3 | >10.5 | 15 ± 0.42 | >5.45 | 63 ± 8 | > 50 | > 81.7 | > 100 | 9.2 ± 4.7 | >8.88 | 9.6 ± 0.17 | >8.51 | – |
| CN(C)c1ccc(/C=C2\CN(C(=O)C(=O)N3C/C(=C\c4ccc(N(C)C)cc4)C(=O)/C(=C/c4ccc(N(C)C)cc4)C3)C/C(=C\c3ccc(N(C)C)cc3)C2=O)cc1 [Compound 2i] | > 100 | > 100 | ~1.00 | > 100 | ~1.00 | > 100 | ~1.00 | > 100 | > 50 | > 100 | > 100 | > 100 | ~1.00 | > 100 | ~1.00 | – |
| O=C1/C(=C/c2ccccc2)CN(C(=O)CC(=O)N2C/C(=C\c3ccccc3)C(=O)/C(=C/c3ccccc3)C2)C/C1=C\c1ccccc1 [Compound 3a] | 1.1 ± 0.01 | 0.06 | 17.4 | 0.05 ± 0.001 | 18.4 | 0.046 ± 0.009 | 20.0 | 0.36 ± 0.1 | 0.92 | – | 1.3 ± 0.33 | 0.046 ± 0.026 | 20.0 | 0.084 ± 0.005 | 11.0 | double-digit nanomolar range |
| O=C1/C(=C/c2ccc(Cl)c(Cl)c2)CN(C(=O)CC(=O)N2C/C(=C\c3ccc(Cl)c(Cl)c3)C(=O)/C(=C/c3ccc(Cl)c(Cl)c3)C2)C/C1=C\c1ccc(Cl)c(Cl)c1 [Compound 3d] | > 100 | 73.3 | >1.38 | 73 ± 3.5 | >1.37 | 65 ± 6.1 | >1.54 | > 100 | > 50 | > 100 | > 100 | 76 ± 13 | >1.32 | 79 ± 5.5 | >1.27 | – |
